Source: paper PMC9772100 (ACS chemical biology, 2022)
Like-named read-outs stand apart in the source and are kept apart here.

T1: PfHGXPRT (Plasmodium falciparum, UniProt P20035)
T1 sequence (P20035 1-231): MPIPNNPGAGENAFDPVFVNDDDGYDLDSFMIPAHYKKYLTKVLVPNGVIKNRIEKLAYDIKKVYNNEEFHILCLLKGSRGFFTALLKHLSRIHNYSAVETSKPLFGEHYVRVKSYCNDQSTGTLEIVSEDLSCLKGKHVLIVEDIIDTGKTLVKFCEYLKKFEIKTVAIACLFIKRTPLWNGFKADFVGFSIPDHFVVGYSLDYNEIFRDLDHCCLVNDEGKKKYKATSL


Experiments:
PfHGXPRT = molecular target: T1, PfHGXPRT; experiment: PfHGXPRT steady-state kinetics; format: biochemical
[1] = substrate: O=c1[nH]cnc2nc[nH]c12; experiment: purified protein, by the assay type; conditions: other: unactivated enzyme; pH 7.4

Row | Molecule | Km (PfHGXPRT; read-out: Km, activated PfHGXPRT, substrate-activated enzyme) | Km (PfHGXPRT; read-out: Km, unactivated PfHGXPRT, unactivated enzyme) | Km [1]
1 | O=P(O)(O)OC[C@H]1O[C@H](OP(=O)(O)OP(=O)(O)O)[C@H](O)[C@@H]1O [PRPP, 5-phospho-α-D-ribosyl 1-pyrophosphate] | 185 ± 14 µM | 55 ± 11 µM | –
2 | PfHGXPRT (Plasmodium falciparum FCR-3/Gambia) (protein) MPIPNNPGAGENAFDPVFVNDDDGYDLDSFMIPAHYKKYLTKVLVPNGVIKNRIEKLAYDIKKVYNNEEFHILCLLKGSRGFFTALLKHLSRIHNYSAVETSKPLFGEHYVRVKSYCNDQSTGTLEIVSEDLSCLKGKHVLIVEDIIDTGKTLVKFCEYLKKFEIKTVAIACLFIKRTPLWNGFKADFVGFSIPDHFVVGYSLDYNEIFRDLDHCCLVNDEGKKKYKATSL | – | – | 2.7 ± 0.3 µM
